Test results taken from patent US12150973B2, “OCA-B peptide conjugates and methods of treatment” (priority 2018, dated 2024).

What was measured:
female NOD mice = assay: NOD mouse model of newly manifested type 1 diabetes; format: in vivo; details: for pancreatic T cell infiltration (total numbers and percentages): flow cytometry; for pancreatic T cell infiltration (total numbers and percentages) / elevated blood glucose: 12 hr after final injection; for elevated blood glucose: female 14-18 week-old NOD mice, glucose newly risen above 225 mg/dL, three intravenous injections of 20 mg/kg spaced by 12 hr
Description: (§1) FIGS. 3A-D show OCA-B inhibitors and results using these peptides in primary CD4 T cells and in a NOD mouse model. […] Peptides #2 (SEQ ID NO: 2) and #3 (SEQ ID NO: 3) show efficacy. Arrows indicate position of mutant in FIG. 2C. Below: Il2 expression in primary CD4 T cells treated with 25 μM peptide #2 measured by RT-qPCR. […] In these animals, most pancreatic beta function is lost, and the diabetes arises from autoimmune inflammation (insulitis) in the pancreas, making the remaining beta cells nonfunctional.
Blood collection occurred prior to 2nd injection and 12 hr after final injection. […] Il2 gene expression was measured by TaqMan RT-qPCR. […] FIGS. 9D and E show similar analysis conducted using pancreatic lymph nodes (PLNs).
The peptide was synthesized and purified for an in vivo experiment. T1D onset in NOD mice is spontaneous and acute, allowing the administration of the peptide as symptoms arise. Female 14-18 week-old NOD mice whose glucose levels were newly-risen above 225 mg/dL but were still below 275 mg/dL were treated with three intravenous injections of 20 mg/kg peptide or Tat-only peptide control. The peptide half-life in serum was predicted to be ˜5 hr, and therefore the injections were spaced by 12 hr. Twelve hours after the final injection, blood glucose was collected and flow cytometry performed on the pancreas and pancreatic lymph nodes (PLNs). Strikingly, the inhibitor reversed elevated blood glucose (FIG. 3B; also see, FIG. 9), pancreatic T cell infiltration (both total numbers and percentages, FIG. 3C and not shown; also see, FIG. 9) and pro-inflammatory IFNγ and IL-17A cytokine production (not shown). Control peptide at the same concentration had no effect. […] OCA-B levels in B cells are at least 50-fold higher than in T cells (Immgen), making it likely that the observed effects are due to competitive inhibition in T cells. […] This peptide was used as a proto-drug to assess function and possible side effects.

primary CD4 T cells = assay: Il2 and Ifng expression in restimulated primary CD4 T cells (RT-qPCR); format: cell-based
Description: as §1
Disclosed herein are methods that can be carried out to determine the efficacy of one or more peptides for their ability to block the interaction of OCA-B and Jmjd1a or Oct1. In some aspects, the method can be, for low-throughput studies, treating primary human or mouse CD4 T cells that have been previously stimulated and rested in culture with the test peptide (10-50 μM), and re-stimulating cells with CD3/CD28 antibodies in the presence of inhibitor. Efficacy can be determined by suppression of e.g., Il2 gene expression in T cells receiving a second stimulation, phenocopying the OCA-B germline deficient mouse (as shown in FIG. 3A). […]

CD4 T cell = assay: Viability, morphology and expansion of peptide-treated CD4 T cells; format: cell-based; details: 25 μM peptide
From the text: Peptides were designed overlapping the OCA-B surface responsible for Jmjd1a binding, and were synthesized as Tat-fusions for membrane permeability (FIG. 3A). […] Treated cells show no changes in viability, morphology or expansion (not shown). Peptide #2 was used for subsequent experiments.

[1] = NOD mice, three intravenous injections of 20 mg/kg, pancreas
[2] = NOD mice, three intravenous injections of 20 mg/kg, PLNs

Substance	pro-inflammatory IFNγ and IL-17A cytokine production (female NOD mice; [1])	pancreatic T cell infiltration (total numbers and percentages) (female NOD mice; [1])	T1D progression / emergence (female NOD mice; NOD mouse model, three injections, short time interval)	elevated blood glucose (female NOD mice)	Il2 and Ifng expression following CD4 T cell restimulation (primary CD4 T cells; 25 μM peptide, Tat-fusion, compared with OCA-B null phenotype)	efficacy (Il2 expression in primary CD4 T cells) (primary CD4 T cells; peptides synthesized as Tat fusions, FIG. 3A)	changes in viability, morphology or expansion of treated cells (CD4 T cell)	T cell numbers or percentages in pancreatic lymph nodes (PLNs) (female NOD mice; [2])	pro-inflammatory cytokine production in pancreatic lymph nodes (PLNs) (female NOD mice; [2])
GRKKRRQRRRGY [Tat-only peptide control, reference compound]	no effect	no effect	progress	no effect	–	–	–	–	–
ARPYQGVRVKEPVKELLRRKRGH [Peptide #3, OCA-B fragment synthesized as Tat fusion]	–	–	–	–	phenocopies the OCA-B null phenotype	show efficacy	no changes	–	–
VKELLRRKRGH-GSG(linker)-GRKKRRQRRRGY(Tat) (VKELLRRKRGHGSGGRKKRRQRRRGY) [SEQ ID NO: 10, OCA-B/Jmjd1a interface peptide fused to Tat peptide through a GSG linker]	–	reduction	–	strong efficacy	–	–	–	unaffected	unaffected
